The subject of one assay is ACh release. Briefly: Neurotransmitter release assay: stimulated ACh release from brain slices. Set-up: species or system rat. To be noted: concentration to enhance stimulated release of ACh by 100% (2-fold) over control, from dose response curves. The procedure:
Male Wistar rats weighing 175-200 g were euthanatized and the brains were dissected out immediately. Slices (0.3 mm thick) from the parietal cortex were prepared manually by using a recessed Lucite® guide. Slices (1.5 mm thick) from the hippocampus and the caudate nucleus were prepared by using a slotted brain holder. All slices were subsequently cut into 0.25×0.25 mm squares with a McIlwain tissue chopper.
Labeling of transmitter stores in slices was prepared by the following methods. For ACh release, slices (approximately 100 mg wet weight) were incubated in 10 ml Krebs-Ringer (KR) medium containing (mM): NaCl(116), KCl(3), CaCl2 (1.3), MgCl2 (1.2), KH2 PO4 (1.2), Na2 SO4 (1.2), NaHCO3 (25) and glucose(11), to which 10 μCi ^3 H-choline (specific activity approx. 80 Ci/mmol: NEN) and 10 nmol unlabeled choline had been added to give a final concentration of 10^-6 M. Incubation was carried out for 30 min at 37° C. under a steady flow of 95% O2 /5% CO2. Under these conditions, part of the radioactive choline taken up is converted into radioactive ACh by cholinergic nerve endings, stored in synaptic vesicles, and released upon depolarization by high-K^+ -containing medium [Molenaar et al., 1973a]. For dopamine (DA), serotonin (5-HT), and norepinephrine (NE) release, slices (approximately 100 mg wet weight) were incubated in KR medium containing 0.01 mM nialamide at 37° C. under a steady flow of 95% O2 /5% CO2. The MAO-inhibitor nialamide was added to the medium in order to inhibit metabolism to the monoamines. Incubation was for 30 min in 10 ml of KR medium to which 10 μCi ^3 H-dopamine, ^3 H-norepinephrine, or ^3 H-5-hydroxytryptamine (specific activity 30, 45, and 78 Ci/mmol, respectively: all from NEN) had been added.
Separate experiments were performed for the release of each neurotransmitter. After labeling of the transmitter stores, the slices were washed three times with non-radioactive KR medium and transferred to a superfusion apparatus to measure the drug effects on transmitter release [Schoemaker et al., Psychopharmacology 74, 137 (1981)]. The superfusion apparatus consisted of 10 thermo-jacketed glass columns of 5 mm diameter which were provided with GF/F glass fiber filters to support the brain slices (approximately 10 mg tissue/column). Superfusion was carried out with KR medium at a rate of 0.3 ml/min. For ACh release, 10^-5 M hemicholinium-3 was added to the medium to prevent the uptake of choline formed during superfusion from phospholipids and released ACh, so that it could not be subsequently converted into newly synthesized ACh, which would be released in preference to the pre-formed, labeled ACh. The medium was delivered by a 25-channel peristaltic pump (Ismatec; Brinkman) and maintained at 37° C. by a thermostated stainless-steel heating coil before entering the superfusion column. Each column was provided with a four-way slider valve (Beckman Instruments) which allowed rapid change of low-to-high-K^+ -KR-medium and with two 10-channel, 3-way valves which were used to change form drug-free to drug-containing low- and high-K^+ -KR media.
After 15 min washout of non-specifically bound radioactivity during superfusion, the collection of fractions of 4 min (1.2 ml) each was started. After 3×4 min, the KR medium was changed to a KR medium with 25 mM KCl (ACh, 5-HT release) or 12.5 mM KCl (DA release) (high K^+ -KR medium; S1). Depolarization-induced stimulation of release by high-K^+ -KR medium was then substituted by drug- or vehicle-containing low- and high-K^+ -KR medium and superfusion continued for 3×4 min with low-K^+ -KR medium, for 1×4 min with high-K^+ -KR medium (S2), and for 2×4 min with low-K^+ -KR medium.
Compounds were added to the medium by 100-fold dilution of appropriate stock solutions (in 0.9% NaCl/H2 O) with either low- or high-K^+ -KR medium.
All superfusion fractions were collected in liquid scintillation counting vials.

A further assay concerns the target DuP 996 binding protein. Briefly: Radioreceptor screening assay (displacement of tritiated DuP 996). Set-up: species or system rat. To be noted: inhibition of binding of 10 nM tritiated DuP 996, pH 7.4, 25° C., 60 minutes. The protocol:
Male Sprague-Dawley rats (Charles River Breeding Laboratories) at 200-250 g were euthanatized by decapitation. Rat brain regions were dissected according to Heffner et al., Pharmacol. Biochem. Behav., 13, 453 (1980). Brain membranes were prepared by the method of Tam, Proc. Natl. Acad. Sci. USA, 80, 6703 (1983). The brain tissues were homogenized (20 sec) in 10 vol (wt/vol) of ice-cold 0.32M sucrose with a Brinkman Polytron (setting 8). The homogenate was centrifuged at 920×g for 10 min at 4° C. The supernatant was centrifuged at 47,000×g for 20 min. The resulting membrane pellet was resuspended in 10 vol (original wt/vol) of 50 mM Tris-HCl (pH 7.4) and incubated at 37° C. for 30 min to degrade and dissociate bound endogenous ligands. The membranes were then centrifuged at 47,000×g for 20 min and resuspended in 50 mM Tris-HCl.
Compounds to be screened were incubated with brain membranes. (1-2 mg protein) in 50 mM Tris-HCl buffer, pH 7.4, for 10 minutes in 25° C. Then 10 nM tritiated DuP 996 or its active structural analogs were added and incubated at 25° C. for 60 minutes. The samples were filtered on Whatman GF/B glass filters which had been soaked in 0.2% polyethylenimine and washed 3 times each with 5 ml of ice-cold Tris buffer. Nonspecific binding was determined by performing binding in the presence of 10 μM DuP 996. The control represents specific binding in the absence of compounds to be screened. Screened compounds which inhibited the specific binding of tritiated DuP 996 or analogs to its binding protein should be active in binding to the same protein. This is illustrated further in Example 4, Part B.

The values below come from patent US5278045A, “Method and compositions to screen compounds for enhancement of the cholinergic, dopaminergic and serotonergic function” (Du Pont Merck Pharmaceutical Company, priority 1990, dated 1994).

The IC50 is the point on the concentration scale where inhibition reaches its midpoint. Low values mean higher potency, high ones lower potency. `CC(=O)c1ccc2c(c1)C(Cc1ccncc1)(Cc1ccncc1)c1ccccc1-2` [Compound 1, 1-[9,9-Bis(4-pyridinylmethyl)-9H-fluoren-2-yl]-ethanone]: the “ACh Release EC100” value in the assay with ACh release was found to be 170 nM. This compound came in with an IC50 at DuP 996 binding protein of 20 nM.
The corresponding values for `Nc1ccc2c(c1)C(Cc1ccncc1)(Cc1ccncc1)c1ccccc1-2` [Compound 2, 9,9-Bis-(4-pyridinylmethyl)-9H-fluorene-2-amine] are 140 nM and 30 nM.
For the compound `O=C1c2c(Cl)cccc2C(Cc2ccncc2)(Cc2ccncc2)c2cccc(Cl)c21` [Compound 3, 10,10-Bis-(4-pyridinylmethyl)-1,8-dichloro-9(10H)-anthracenone], the “ACh Release EC100” value with ACh release is reported as 170 nM. This compound displayed an IC50 on DuP 996 binding protein of 32 nM.
Regarding `O=C1c2ccccc2C(Cc2ccncc2)(Cc2ccncc2)c2ccccc21` [Compound 4, 10,10-Bis(4-pyridinylmethyl)-9(10H)-anthracenone], in the assay on ACh release, the “ACh Release EC100” value is given as 90 nM. For the same compound, the IC50 on DuP 996 binding protein is 34 nM.
Take `O=C1N2c3ccccc3CCc3cccc(c32)C1(Cc1ccncc1)Cc1ccncc1` [Compound 5, 2,2-Bis(4-pyridinylmethyl)-6,7-dihydro-indole(1,7-AB)(1)-benzapin-1(2H)-one]: the “ACh Release EC100” value in the assay with ACh release was 2,500 nM. At DuP 996 binding protein, this compound showed a half-inhibitory concentration (IC50) of 46 nM.
The corresponding values for `c1ccc2c(c1)Sc1ccccc1C2(Cc1ccncc1)Cc1ccncc1` [Compound 6, 4,4'-[9H-Thioxanthen-9,9-diylbis(methylene)]pryidine] are 1,500 nM and 51 nM.
For `Cc1ccc2c(c1)C(Cc1ccncc1)(Cc1ccncc1)c1ccccc1-2` [Compound 8, 4-[2-Methyl-9-(4-pyridinyl-methyl)-9H-fluoren-9-ylmethyl]pyridine], in that order: 170 nM and 62 nM.
For `c1ccc2c(c1)-c1ccccc1C2(Cc1ccncc1)Cc1ccncc1` [Compound 9, 9,9-Bis(4-pyridinylmethyl)-9H-fluorene], in that order: 340 nM and 62 nM.
As for `COc1ccc(C(C#N)(Cc2ccncc2)Cc2ccncc2)cc1` [Compound 10, α-(4-Methoxyphenyl)-α-(4-pyridinylmethyl)-4-pyridinepropane nitrile], the “ACh Release EC100” value in the assay with ACh release is given as 1,600 nM. The compound further displayed an IC50 at DuP 996 binding protein of 119 nM.
The corresponding values for `C=C1c2cccc3cccc(c23)C1(Cc1ccncc1)Cc1ccncc1` [Compound 11, 4-[1,2-Dihydro-2-methyl-ene-1-(4-pyridinylmethyl)-1-acenaphthylen-1-yl-methyl]-pyridine] are 3,300 nM and 120 nM.
For `c1cnc2c(c1)C(Cc1ccncc1)(Cc1ccncc1)c1cccnc1-2` [Compound 12, 5,5-Bis(4-pyridinyl-methyl)-5H-cyclopenta(2,1-B:3,4-B')-dipyridine], in that order: 1,400 nM and 168 nM.
On to `O=C1N(c2ccccc2)c2ccccc2C1(Cc1ccncc1)Cc1ccncn1` (centres unmarked) [Compound 13, 1,3-Dihydro-1-phenyl-3-(4-pyridinylmethyl)-3(4-pyrimidinylmethyl)-2H-indol-2-one], for which the “ACh Release EC100” value in the assay with ACh release is on record as 1,500 nM. Besides, the IC50 on DuP 996 binding protein worked out at 179 nM.
For `Cc1ccc2c(c1)N(c1ccccc1)C(=O)C2(Cc1ccncc1)Cc1ccncc1` [Compound 14, 3,3-Bis(4-pyridinylmethyl)-1,3-dihydro-6-methyl-1-phenyl-2H-indol-2-one], in that order: 4,800 nM and 198 nM.
For `O=C1N2CCCc3cccc(c32)C1(Cc1ccncc1)Cc1ccncc1` [Compound 15, 1,1-Bis(4-pyridinylmethyl)5,6-dihydro-4H-pyrollo(3,2,1-IJ)quinolin-2(1H)-one], in that order: 14,000 nM and 558 nM.
With `O=C1N(c2ccccc2)c2ccccc2C1(Cc1ccncn1)Cc1ccncn1` [Compound 16, 3,3-Bis(4-pyrimidinylmethyl)-1-phenyl-1H-indol-2(3H)-one], the “ACh Release EC100” value in the assay on ACh release is on record as 3,500 nM. Also, the IC50 on DuP 996 binding protein is 570 nM.
For `O=C1N(c2ccccc2)c2ccccc2C1(Cc1ccncc1)Cc1cn[nH]c1` (centres unmarked) [Compound 17, 1,3-Dihydro-1-phenyl-3-(1H-pyrazol-4-ylmethyl)-3-(4-pyridinyl-methyl)-2H-indol-2-one], in that order: 3,000 nM and 670 nM.
For the compound `O=C1N(c2ccccc2)c2ccccc2C1(Cc1ccncc1)CC1CCCO1` (centres unmarked) [Compound 18, 1,3-Dihydro-1-phenyl-3-(4-pyridinylmethyl)-3-(tetrahydro-2-furanyl-methyl)-2H-indol-2-one], the “ACh Release EC100” value with ACh release is listed as 34,000 nM. The half-maximal inhibitory concentration (IC50) on DuP 996 binding protein amounted to 1040 nM.
With `O=C1N(Cc2ccccc2)c2ccccc2C1(Cc1ccncc1)Cc1ccncc1` [Compound 19, 3,3-Bis(4-pyridinyl-methyl)-1,3-dihydro-1-(phenylmethyl)-2H-indol-2-one], the “ACh Release EC100” value in the assay on ACh release is listed as 4,500 nM. This compound also yielded a half-inhibitory concentration (IC50) on DuP 996 binding protein of 1170 nM.
For `O=C1N(c2ccccc2)c2ccccc2C1(Cc1cnccn1)Cc1cnccn1` [Compound 20, 3,3-Bis(2-pyrazinylmethyl)-1-phenyl-1H-indol-2(3H)-one], in that order: 11,000 nM and 4200 nM.
The corresponding values for `O=C1C(Cc2cccnc2)c2ccccc2N1c1ccccc1` (centres unmarked) [Compound 21, 1,3-Dihydro-1-phenyl-3-(3-pyridinylmethyl)-2H-indol-2-one] are 12,000 nM and 6030 nM.
For `CN1C(=O)C(Cc2ccncc2)(Cc2ccncc2)c2ccccc21` [Compound 22, 1,3-Dihydro-1-methyl-3-3-bis(4-pyridinylmethyl)-2-H-indol-2-one], in that order: 17,000 nM and 15900 nM.
As to `O=C1N(c2ccccc2)c2ccccc2C1(c1cncnc1)c1cncnc1` [Compound 24, 3,3-Bis(5-pyrimidinyl)-1,3-dihydro-1-phenyl-2H-indol-2-one], the “ACh Release EC100” value in the assay with ACh release was 980,000 nM. On DuP 996 binding protein, this compound yielded an IC50 of 75900 nM.
